Assay results taken from US10059741B2 (priority 2015, dated 2018).
Values joined by “and” are separate entries in the source; they are usually repeats but may differ in a detail not shown here. Equal entries are not always repeated. Where two headings read alike, the source gives them in different places. Bridge positions count the residues as written; N and C are the ends. Square brackets hold non-standard residues; d marks the D form. Peptide text beside a SMILES is read from it. * marks the point of attachment. 5FAM = O=C1OC2(c3ccc(O)cc3Oc3cc(O)ccc32)c2ccc(C(=O)*)cc21; R8 = C=CCCCCCC[C@@](C)(N)C(=O)O; S5 = C=CCCC[C@](C)(N)C(=O)O; Nle = CCCC[C@H](N)C(=O)O; Aib = CC(C)(N)C(=O)O; βAla = NCCC(=O)O

Experiments:
H1N1 California/07/2009 [1] = assay: microbe, parasite or virus in culture; format: cell-based, influenza A virus
H3N2 Perth/16/2009 [2] = assay: microbe, parasite or virus in culture; format: cell-based, influenza A virus
H1N1 California/07/2009 [3] = assay: microbe, parasite or virus in culture; format: cell-based, influenza A virus; remark: listed apart in the source
H3N2 Perth/16/2009 [4] = assay: microbe, parasite or virus in culture; format: cell-based, influenza A virus; remark: listed apart in the source
in vitro = conditions: dog
[5] = CC50 (μM) H1N1 California/07/2009, Cell cytotoxicity (CC), run with H1N1 California/07/2009
[6] = CC50 (μM) H3N2 Perth/16/2009, Cell cytotoxicity (CC), run with H3N2 Perth/16/2009
[7] = CC50, run with Influenza A H1N1 California/07/2009, Neutral Red
[8] = CC50, run with Influenza A H1N1 California/07/2009, Visual
[9] = CC50, run with Influenza A H3N2 Perth/16/2006 (so in the source), Neutral Red
[10] = CC50, run with Influenza A H3N2 Perth/16/2006 (so in the source), Visual
[11] = read-out: EC50 (μM) H1N1 California/07/2009
[12] = read-out: EC50 (μM) H3N2 Perth/16/2009
[13] = CC50, MDCK cells, run with Influenza A H1N1 California/07/2009, Neutral Red
[14] = CC50, MDCK cells, run with Influenza A H1N1 California/07/2009, Visual

Structure (SMILES) | CC50 (in vitro; [5]) [µM] | CC50 (in vitro; [6]) [µM] | CC50 (in vitro; [7]) [µM] | CC50 (in vitro; [8]) [µM] | CC50 (in vitro; [9]) [µM] | CC50 (in vitro; [10]) [µM] | EC50 (H1N1 California/07/2009 [1]; [11]) [µM] | EC50 (H3N2 Perth/16/2009 [2]; [12]) [µM] | EC50 (H1N1 California/07/2009 [3]; [11]) [µM] | EC50 (H3N2 Perth/16/2009 [4]; [12]) [µM] | CC50 (in vitro; [13]) [µM] | CC50 (in vitro; [14]) [µM] | further results
CCCC[C@H](NC(C)=O)C(=O)N[C@@H](CC(=O)O)C(=O)N[C@H](C(=O)N[C@@H](CC(N)=O)C(=O)N[C@]1(C)CCCCCCC=CCCC[C@@](C)(C(=O)N[C@@H](C)C(=O)N[C@@H](C)C(=O)N[C@@H](CCC(N)=O)C(=O)N[C@@H](C)C(=O)N[C@@H](C)C(N)=O)NC(=O)[C@H](C)NC(=O)[C@H](CC(C)C)NC(=O)[C@H](Cc2ccccc2)NC(=O)[C@H](CC(C)C)NC(=O)[C@H](CC(C)C)NC(=O)[C@H]([C@@H](C)O)NC1=O)C(C)C [SP-24] (Ac-[Nle]DVN[R8]TLLFLA[S5]AAQAA-NH2; staple 5-12) | > 100 | > 100 | > 100 | > 100 | > 100 | > 100 |  |  |  |  |  |  | EC50 (H1N1 California/07/2009 [1]; Cytopathic effect/toxicity (Visual), MDCK cells, read-out: EC50 (μM) H1N1 California/07/2009): 1.5 to 10 µM; EC50 (H1N1 California/07/2009 [1]; Influenza A H1N1 California/07/2009, Drug Assay Visual, read-out: EC50): 4.3 µM; EC50 (H3N2 Perth/16/2009 [2]; Cytopathic effect/toxicity (Visual), MDCK cells, read-out: EC50 (μM) H3N2 Perth/16/2009): 1.5 to 10 µM; EC50 (H3N2 Perth/16/2009 [2]; Influenza A H3N2 Perth/16/2006 (so in the source), Drug Assay Visual, read-out: EC50): 2.5 µM; EC50 (H1N1 California/07/2009 [3]; Cytopathic effect/toxicity (Neutral red), MDCK cells, read-out: EC50 (μM) H1N1 California/07/2009): 1.5 to 10 µM; EC50 (H1N1 California/07/2009 [3]; Influenza A H1N1 California/07/2009, Drug Assay Neutral Red, read-out: EC50): 6.9 µM; EC50 (H3N2 Perth/16/2009 [4]; Cytopathic effect/toxicity (Neutral red), MDCK cells, read-out: EC50 (μM) H3N2 Perth/16/2009): 1.5 to 10 µM; EC50 (H3N2 Perth/16/2009 [4]; Influenza A H3N2 Perth/16/2006 (so in the source), Drug Assay Neutral Red, read-out: EC50): 3.4 µM
CCCC[C@H](NC(C)=O)C(=O)N[C@@H](CC(=O)O)C(=O)N[C@H](C(=O)N[C@@H](CC(N)=O)C(=O)N[C@@]1(C)CCCC=CCCC[C@@](C)(C(=O)N[C@@H](CC(C)C)C(=O)N[C@@H](CCCCN)C(=O)N[C@H](C(=O)N2CCC[C@H]2C(=O)NC(C)(C)C(=O)N[C@@H](CCC(N)=O)C(N)=O)C(C)C)NC(=O)[C@H](CC(C)C)NC(=O)[C@H](CC(C)C)NC(=O)[C@H]([C@@H](C)O)NC1=O)C(C)C [SP-3] (Ac-[Nle]DVN[S5]TLL[S5]LKVP[Aib]Q-NH2; staple 5-9) | > 100 | > 100 |  |  |  |  | > 50 | 25 to 50 | > 50 | > 50 | > 100 | > 100 | EC50 (H1N1 California/07/2009 [3]; read-out: EC50): > 100 µM and 73 µM
CC(=O)N[C@@H](Cc1ccccc1)C(=O)N[C@@H](CC(=O)O)C(=O)N[C@H](C(=O)N[C@@H](CC(N)=O)C(=O)N[C@@]1(C)CCCC=CCCC[C@@](C)(C(=O)N[C@@H](CC(C)C)C(=O)N[C@@H](CCCCN)C(=O)N[C@H](C(=O)NC(C)(C)C(=O)N[C@@H](C)C(=O)N[C@@H](CCC(N)=O)C(N)=O)C(C)C)NC(=O)[C@H](CC(C)C)NC(=O)[C@H](CC(C)C)NC(=O)[C@H]([C@@H](C)O)NC1=O)C(C)C [SP-4] (Ac-FDVN[S5]TLL[S5]LKV[Aib]AQ-NH2; staple 5-9) | > 100 | > 100 |  |  |  |  | > 50 | 25 to 50 | > 50 | 25 to 50 | > 100 | > 100 | 
CCCC[C@H](NC(C)=O)C(=O)N[C@@H](CC(=O)O)C(=O)N[C@H](C(=O)N[C@@H](CC(N)=O)C(=O)N[C@@]1(C)CCCC=CCCC[C@@](C)(C(=O)N[C@@H](CC(C)C)C(=O)N[C@@H](C)C(=O)N[C@H](C(=O)N[C@@H](CCC(N)=O)C(=O)NC(C)(C)C(=O)N[C@@H](CCC(N)=O)C(=O)N[C@@H](C)C(=O)N[C@@H](C)C(N)=O)C(C)C)NC(=O)[C@H](CC(C)C)NC(=O)[C@H](CC(C)C)NC(=O)[C@H]([C@@H](C)O)NC1=O)C(C)C [SP-19] (Ac-[Nle]DVN[S5]TLL[S5]LAVQ[Aib]QAA-NH2; staple 5-9) | > 100 | > 100 | > 100 | > 100 | > 100 | > 100 | 1.5 to 10 | 1.5 to 10 | 1.5 to 10 | 1.5 to 10 |  |  | 
CCCC[C@H](NC(C)=O)C(=O)N[C@@H](CC(=O)O)C(=O)N[C@H](C(=O)N[C@@H](CC(N)=O)C(=O)N[C@@]1(C)CCCC=CCCC[C@@](C)(C(=O)N[C@@H](CC(C)C)C(=O)N[C@@H](C)C(=O)N[C@H](C(=O)NC(C)(C)C(=O)N[C@@H](C)C(=O)N[C@@H](CCC(N)=O)C(=O)N[C@@H](C)C(=O)N[C@H](C)C(=O)O)C(C)C)NC(=O)[C@H](CC(C)C)NC(=O)[C@H](CC(C)C)NC(=O)[C@H]([C@@H](C)O)NC1=O)C(C)C [SP-17] (Ac-[Nle]DVN[S5]TLL[S5]LAV[Aib]AQA[dA]-OH; staple 5-9) | > 100 | > 100 |  |  |  |  | 25 to 50 | 10 to 25 | 25 to 50 | 10 to 25 | > 100 | > 100 | 
CCCC[C@H](NC(C)=O)C(=O)N[C@@H](CC(=O)O)C(=O)N[C@H](C(=O)N[C@@H](CC(N)=O)C(=O)N[C@@]1(C)CCCC=CCCC[C@@](C)(C(=O)N[C@@H](CC(C)C)C(=O)N[C@@H](C)C(=O)N[C@H](C(=O)N[C@@H](CCC(N)=O)C(=O)N[C@@H](C)C(=O)N[C@@H](CCC(N)=O)C(=O)NC(C)(C)C(=O)N[C@@H](C)C(N)=O)C(C)C)NC(=O)[C@H](CC(C)C)NC(=O)[C@H](CC(C)C)NC(=O)[C@H]([C@@H](C)O)NC1=O)C(C)C [SP-20] (Ac-[Nle]DVN[S5]TLL[S5]LAVQAQ[Aib]A-NH2; staple 5-9) | > 100 | > 100 | > 100 | > 100 | > 100 | > 100 | 10 to 25 | 1.5 to 10 | 25 to 50 | 1.5 to 10 |  |  | 
CCCC[C@H](NC(=O)CCNC(=O)c1ccc2c(c1)C(=O)OC21c2ccc(O)cc2Oc2cc(O)ccc21)C(=O)N[C@@H](CC(=O)O)C(=O)N[C@H](C(=O)N[C@@H](CC(N)=O)C(=O)N[C@@]1(C)CCCC=CCCC[C@@](C)(C(=O)N[C@@H](CC(C)C)C(=O)N[C@@H](C)C(=O)N[C@H](C(=O)NC(C)(C)C(=O)N[C@@H](C)C(=O)N[C@@H](CCC(N)=O)C(N)=O)C(C)C)NC(=O)[C@H](CC(C)C)NC(=O)[C@H](CC(C)C)NC(=O)[C@H]([C@@H](C)O)NC1=O)C(C)C [SP-5] ({5FAM-βAla}-[Nle]DVN[S5]TLL[S5]LAV[Aib]AQ-NH2; staple 5-9) | > 100 | > 100 |  |  |  |  |  |  |  |  | > 100 | > 100 | 
CCCC[C@H](NC(C)=O)C(=O)N[C@@H](CC(=O)O)C(=O)N[C@H](C(=O)N[C@@H](CC(N)=O)C(=O)N[C@@]1(C)CCCC=CCCC[C@@](C)(C(=O)N[C@@H](CC(C)C)C(=O)N[C@@H](CCCCN)C(=O)N[C@@H](C)C(=O)NC(C)(C)C(=O)N[C@@H](C)C(=O)N[C@@H](CCC(N)=O)C(N)=O)NC(=O)[C@H](CC(C)C)NC(=O)[C@H](CC(C)C)NC(=O)[C@H]([C@@H](C)O)NC1=O)C(C)C [SP-1] (Ac-[Nle]DVN[S5]TLL[S5]LKA[Aib]AQ-NH2; staple 5-9) | > 100 | > 100 |  |  |  |  | > 50 | 25 to 50 | 25 to 50 | 25 to 50 | > 100 | > 100 | 
CCCC[C@H](NC(C)=O)C(=O)N[C@@H](CC(=O)O)C(=O)N[C@H](C(=O)N[C@@H](CC(N)=O)C(=O)N[C@@]1(C)CCCC=CCCC[C@@](C)(C(=O)N[C@@H](CC(C)C)C(=O)N[C@@H](CCCCN)C(=O)N[C@H](C(=O)NC(C)(C)C(=O)N[C@@H](C)C(=O)N[C@@H](C)C(N)=O)C(C)C)NC(=O)[C@H](CC(C)C)NC(=O)[C@H](CC(C)C)NC(=O)[C@H]([C@@H](C)O)NC1=O)C(C)C [SP-2] (Ac-[Nle]DVN[S5]TLL[S5]LKV[Aib]AA-NH2; staple 5-9) | > 100 | > 100 |  |  |  |  | > 50 | 10 to 25 | > 50 | 25 to 50 | > 100 | > 100 | EC50 (H1N1 California/07/2009 [3]; read-out: EC50): 51 µM and 32 µM
CCCC[C@H](NC(C)=O)C(=O)N[C@@H](CC(=O)O)C(=O)N[C@H](C(=O)N[C@@H](CC(N)=O)C(=O)N[C@@]1(C)CCCC=CCCC[C@@](C)(C(=O)N[C@@H](CC(C)C)C(=O)N[C@@H](C)C(=O)N[C@H](C(=O)N[C@@H](CCC(N)=O)C(=O)N[C@@H](C)C(=O)NC(C)(C)C(=O)N[C@@H](C)C(=O)N[C@@H](C)C(N)=O)C(C)C)NC(=O)[C@H](CC(C)C)NC(=O)[C@H](CC(C)C)NC(=O)[C@H]([C@@H](C)O)NC1=O)C(C)C [SP-23] (Ac-[Nle]DVN[S5]TLL[S5]LAVQA[Aib]AA-NH2; staple 5-9) | > 100 | > 100 | > 100 | > 100 | > 100 | > 100 | 1.5 to 10 | 1.5 to 10 | 1.5 to 10 | 1.5 to 10 |  |  | EC50 (H1N1 California/07/2009 [1]; read-out: EC50): 4.3 µM; EC50 (H1N1 California/07/2009 [3]; read-out: EC50): 4.2 µM
CCCC[C@H](NC(C)=O)C(=O)N[C@@H](CC(=O)O)C(=O)N[C@H](C(=O)N[C@@H](CC(N)=O)C(=O)N[C@@]1(C)CCCC=CCCC[C@@](C)(C(=O)N[C@@H](CC(C)C)C(=O)N[C@@H](C)C(=O)N[C@H](C(=O)NC(C)(C)C(=O)N[C@@H](C)C(=O)N[C@@H](CCC(N)=O)C(=O)N[C@@H](C)C(=O)N[C@H](C)C(N)=O)C(C)C)NC(=O)[C@H](CC(C)C)NC(=O)[C@H](CC(C)C)NC(=O)[C@H]([C@@H](C)O)NC1=O)C(C)C [SP-16] (Ac-[Nle]DVN[S5]TLL[S5]LAV[Aib]AQA[dA]-NH2; staple 5-9) | > 100 | > 100 |  |  |  |  | 10 to 25 | 25 to 50 | 10 to 25 | 25 to 50 | > 100 | > 100 | 
